Experimental data published in patent publication US20050245563A1 (Millennium Pharmaceuticals, Inc., priority 2003, published 2005).

The molecules below were run against T1, human Chk1 (GST-Chk1) (Homo sapiens, UniProt O14757) (assay: Chk1 DELFIA kinase assay (2 nM GST-Chk1, 600 μM ATP)). Conditions: Biotin-GLYRSPSMPEN-amide substrate.
T1 construct: made in house; host or cells: insect cells (baculovirus, Bac-to-Bac)
T1 sequence (O14757 1-476): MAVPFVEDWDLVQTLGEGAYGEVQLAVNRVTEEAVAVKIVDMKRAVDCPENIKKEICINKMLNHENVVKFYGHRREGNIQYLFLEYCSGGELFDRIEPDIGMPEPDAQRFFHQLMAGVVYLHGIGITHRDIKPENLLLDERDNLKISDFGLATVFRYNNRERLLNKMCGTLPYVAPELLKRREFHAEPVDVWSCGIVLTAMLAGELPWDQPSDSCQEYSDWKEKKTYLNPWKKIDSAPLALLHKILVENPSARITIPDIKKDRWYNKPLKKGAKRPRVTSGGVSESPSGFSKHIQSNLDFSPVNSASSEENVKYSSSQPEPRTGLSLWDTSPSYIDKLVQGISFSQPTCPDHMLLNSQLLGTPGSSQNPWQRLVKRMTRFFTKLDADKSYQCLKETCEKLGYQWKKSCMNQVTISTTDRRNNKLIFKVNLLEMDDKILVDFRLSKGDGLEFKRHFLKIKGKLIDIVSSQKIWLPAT
Format: biochemical
Description: Recombinant human Chk1 was expressed as a fusion protein with glutathione S-transferase at the amino-terminus (GST-Chk1) using standard baculovirus vectors and (Bac-to-Bac®) insect cell expression system purchased from GIBCO™ Invitrogen. Recombinant protein expressed in insect cells was purified using glutathione sepharose (Amersham Biotech) using standard procedures described by the manufacturer.
Chk1 DELFIA® Kinase Assay:
Assays (25 μL) utilized 2 nM GST-Chk1 containing 10 mM Tris, pH 7.5, 20% glycerol, 50 mM sodium chloride (NaCl), 0.01% Surfact-Amps® 20, 1 μM peptide stubstrate (Biotin-GLYRSPSMPEN-amide) (SEQ ID NO: 3), 01.% BSA, 2 mM DTT, 4% DMSO, 600 μM ATP, 10 MM MgCl2 and reacted for 50 minutes at room temperature. Reactions were terminated with 100 μL of Stop buffer containing 1% BSA, 10 mM Tris, pH 8.0, 150 mM NaCl, 100 mM EDTA. Stopped reactions (100 μL) were transferred to 96 well NeutrAvidin plates (Pierce) to capture the biotin-peptide substrate during a 30 minute room temperature incubation. Wells were washed and reacted with 100 μL PerkinElmer Wallac Assay Buffer containing 21.5 ng/ml anti-phospho-Ser216-Cdc25c rabbit polyclonal antibody from Cell Signaling Technology (Beverly, Mass.) and 292 ng/ml europium labeled anti-rabbit-IgG for 1 hour at room temperature. Wells were washed and europium released from the bound antibody by addition of Enhancement Solution (100 μL) (PerkinElmer Wallac) and detected using a Perkin Elmer Wallac Envison™ 2100 multilabel reader using standard manufacturer settings.

Row | Compound | IC50 [µM]
1 | Cc1[nH]nc2c1c(=O)n(C[C@H](C)CN)c1ccc(F)cc21 (stereo in doubt) [Compound 202, 5-(3-Amino-2-methyl-propyl)-8-fluoro-3-methyl-2,5-dihydro-pyrazolo[4,3-c]quinolin-4-one] | < 1
2 | Cc1[nH]nc2c1c(=O)n(CCCN)c1ccc(F)cc21 [Compound 203, 5-(3-Amino-propyl)-8-fluoro-3-methyl-2,5-dihydro-pyrazolo[4,3-c]quinolin-4-one] | < 1
3 | COCCc1[nH]nc2c1c(=O)n(CCCN)c1ccc(F)cc21 [Compound 205, 5-(3-Amino-propyl)-8-fluoro-3-(2-methoxy-ethyl)-2,5-dihydro-pyrazolo[4,3-c]quinolin-4-one] | < 1
4 | COCCc1[nH]nc2c1c(=O)n(CCCN)c1ccc(Cl)cc21 [Compound 206, 5-(3-Amino-propyl)-8-chloro-3-(2-methoxyethyl)-2,5-dihydro-pyrazolo[4,3-c]quinolin-4-one] | < 1
5 | Cc1[nH]nc2c1c(=O)n(CCCN)c1ccc(I)cc21 [Compound 208, 5-(3-Amino-propyl)-8-iodo-3-methyl-2,5-dihydro-pyrazolo[4,3-c]quinolin-4-one] | < 1
6 | Cc1[nH]nc2c1c(=O)n(CCCO)c1ccc(Cl)cc21 [Compound 209, 8-Chloro-5-(3-hydroxy-propyl)-3-methyl-2,5-dihydro-pyrazolo[4,3-c]quinolin-4-one] | < 1
7 | Cc1[nH]nc2c1c(=O)n(CC[C@H]1CCCCN1)c1ccc(Cl)cc21 [Compound 213, 8-Chloro-3-methyl-5-(2R-piperidin-2-yl-ethyl)-2,5-dihydro-pyrazolo[4,3-c]quinolin-4-one] | < 1
8 | Cc1[nH]nc2c1c(=O)n(CCC(C)N)c1ccc(Cl)cc21 (stereo not drawn) [Compound 216, 5-(3-Amino-butyl)-8-chloro 3-methyl-2,5-dihydro-pyrazolo[4,3-c]quinolin-4-one] | < 1
9 | Cc1[nH]nc2c1c(=O)n(CCC(O)Cn1ccnc1)c1ccc(Cl)cc21 (stereo not drawn) [Compound 252, 8-Chloro-5-(3-hydroxy-4-imidazol-1-yl-butyl)-3-methyl-2,5-dihydro-pyrazolo[4,3-c]quinolin-4-one] | < 1
10 | Cc1[nH]nc2c1c(=O)n(CCCNC(=N)N)c1ccc(Cl)cc21 [Compound 253, N-[3-(8-Chloro-3-methyl-4-oxo-2,4-dihydro-pyrazolo[4,3-c]quinolin-5-yl)-propyl]-guanidine] | < 1
11 | Cc1[nH]nc2c1c(=O)n(CCCN)c1ccc(C(=O)O)cc21 [Compound 266, 5-(3-Amino-propyl)-3-methyl-4-oxo-4,5-dihydro-2H-pyrazolo[4,3-c]quinoline-8-carboxylic acid] | 1 to 10
12 | COC(=O)/C=C/c1ccc2c(c1)c1n[nH]c(C)c1c(=O)n2CCCN [Compound 267, 3-[5-(3-Amino-propyl)-3-methyl-4-oxo-4,5-dihydro-2H-pyrazolo[4,3-c]quinolin-8-yl]-acrylic acid methyl ester] | < 1
13 | COC(=O)CCc1ccc2c(c1)c1n[nH]c(C)c1c(=O)n2CCCN [Compound 268, 3-[5-(3-Amino-propyl)-3-methyl-4-oxo-4,5-dihydro-2H-pyrazolo[4,3-c]quinolin-8-yl]-propionic acid methyl ester] | < 1
14 | Cc1[nH]nc2c1c(=O)n(CCCN)c1ccc(CCC(=O)O)cc21 [Compound 269, 3-[5-(3-Aminopropyl)-3-methyl-4-oxo-4,5-dihydro-2H-pyrazolo[4,3-c]quinolin-8-yl]-propionic acid] | 1 to 10
15 | NCCCn1c(=O)c2c(CCO)[nH]nc2c2cc(Cl)ccc21 [Compound 316, 5-(3-Amino-propyl)-8-chloro-3-(2-hydroxy-ethyl)-2,5-dihydro-pyrazolo[4,3-c]quinolin-4-one] | < 1
16 | COC(C)Cc1[nH]nc2c1c(=O)n(CCCN)c1ccc(Cl)cc21 (stereo not drawn) [Compound 324, 5-(3-Amino-propyl)-8-chloro-3-(2-methoxy-propyl)-2,5-dihydro-pyrazolo[4,3-c]quinolin-4-one] | 1 to 10
17 | CC(C)c1[nH]nc2c1c(=O)n(CCCN)c1ccc(Cl)cc21 [Compound 325, 5-(3-Amino-propyl)-8-chloro-3-isopropyl-2,5-dihydro-pyrazolo[4,3-c]quinolin-4-one] | < 1
18 | COC(=O)c1ccc2c3n[nH]c(C)c3c(=O)n(CCCN)c2c1 [Compound 334, 5-(3-Amino-propyl)-3-methyl-4-oxo-4,5-dihydro-2H-pyrazolo[4,3-c]quinoline-7-carboxylic acid methyl ester] | 1 to 10
19 | Cc1[nH]nc2c1c(=O)n(C)c1c(CCCN)cc(Cl)cc21 [Compound 343, 6-(3-Amino-propyl)-8-chloro-3,5-dimethyl-2,5-dihydro-pyrazolo[4,3-c]quinolin-4-one] | 1 to 10
20 | Cc1[nH]nc2c1c(=O)n(C)c1c(C#CCO)cc(Cl)cc21 [Compound 344, 8-Chloro-6-(3-hydroxy-prop-1-ynyl)-3,5-dimethyl-2,5-dihydro-pyrazolo[4,3-c]quinolin-4-one] | 1 to 10
21 | Cc1[nH]nc2c1c(=O)n(C)c1c(C#CCCN)cc(Cl)cc21 [Compound 345, 6-(4-amino-but-1-ynyl)-8-chloro-3,5-dimethyl-2,5-dihydro-pyrazolo[4,3-c]quinolin-4-one] | < 1
22 | Cc1[nH]nc2c1c(=O)n(CCCN)c1c([N+](=O)[O-])cc(Cl)cc21 [Compound 347, 5-(3-Amino-propyl)-8-chloro-3-methyl-6-nitro-2,5-dihydro-pyrazolo[4,3-c]quinolin-4-one] | 1 to 10
23 | Cc1[nH]nc2c1c(=O)n(CCCN)c1c(N)cc(Cl)cc21 [Compound 348, 6-Amino-5-(3-amino-propyl)-8-chloro-3-methyl-2,5-dihydro-pyrazolo[4,3-c]quinolin4-one] | < 1
24 | Cc1[nH]nc2c1c(=O)n(CCCN)c1c(Br)cc(Cl)cc21 [Compound 349, 5-(3-Amino-propyl)-6-bromo-8-chloro-3-methyl 2,5-dihydro-pyrazolo[4,3-c]quinolin-4-one] | < 1
25 | Cc1[nH]nc2c1c(=O)n(CCCN)c1ccc(NC(=O)CCN)cc21 [Compound 357, 3-Amino-N-[5-(3-amino-propyl)-3-methyl-4-oxo-4,5-dihydro-2H-pyrazolo[4,3-c]quinolin-8-yl]-propionamide] | < 1
26 | Cc1[nH]nc2c1c(=O)n(CCCN)c1ccc(-c3ccncc3)cc21 [Compound 358, 5-(3-Amino-propyl)-3-methyl-8-pyridin-4-yl-2,5-dihydro-pyrazolo[4,3-c]quinolin-4-one] | < 1
27 | C#Cc1ccc2c(c1)c1n[nH]c(CC)c1c(=O)n2CCCN [Compound 360, 5-(3-Amino-propyl)-3-ethyl-8-ethynyl-2,5-dihydro-pyrazolo[4,3-c]quinolin-4-one] | < 1
28 | Cc1[nH]nc2c1c(=O)n(CC[C@@H](C)N)c1ccc(Cl)cc21 [Example 217, 5-(3R-Amino-butyl)-8-chloro 3-methyl-2,5-dihydro-pyrazolo[4,3-c]quinolin-4-one] | < 1
29 | COCCc1[nH]nc2c1c(=O)n(CCC(C)N)c1ccc(Cl)cc21 (stereo not drawn) [Example 219] | < 1
30 | Cc1[nH]nc2c1c(=O)n(C[C@@H](C)CN)c1ccc(Cl)cc21 [Example 220, 5-(3-Amino-2S-methyl-propyl)-8-chloro-3-methyl-2,5-dihydro-pyrazolo[4,3-c]quinolin-4-one] | < 1
